Laboratory results published in patent US20260035387A1 (BIOGEN MA INC., priority 2022, published 2026).

What follows are compounds tested on mutant Huntington (HTT) protein (assay: HTT Mutant HTRF iPSC assay (mHTT protein lowering)). Settings: human iPSC derived from a HTT patient with a poly-Q49 mutation.
Assay type: cell-based
Compound `Cc1cn2cc(NC(=O)c3cc4ccc(N5CC[C@]6(CCCN6C)C5)nc4s3)nc(C(F)F)c2n1` (single isomer, unassigned) [Compound 255] has an IC50 of under 100 nM.
Compound `COc1cc2nn(C)cc2cc1NC(=O)c1cc2ncc(N3CCC4(CCN4C)C3)nc2s1` (single isomer, unassigned) [Compound 264] has an IC50 of under 100 nM.
Compound `COc1c(NC(=O)c2cc3ccc(C4CCN(C)C4)nc3s2)cc2cn(C)nc2c1F` (single isomer, unassigned) [Compound 265] has an IC50 of under 100 nM.
`COc1c(NC(=O)c2cc3ccc(C4CCN(C)C4)nc3s2)cc2cn(C)nc2c1F` (single isomer, unassigned) [Compound 266] showed an IC50 of under 100 nM.
`Cc1cn2cc(NC(=O)c3cc4ccc(N5CCC(N(C)C)C5)nc4s3)ccc2n1` (stereo in doubt) [Compound 25, (R)-6-(3-(dimethylamino)pyrrolidin-1-yl)-N-(2-methylimidazo[1,2-a]pyridin-6-yl)thieno[2,3-b]pyridine-2-carboxamide] was tested, and the IC50 was 100 to 1000 nM.
`Cc1cn2cc(NC(=O)c3cc4ccc(N5CCC(N(C)C)C5)nc4s3)ccc2n1` (stereo in doubt) [Compound 26, (S)-6-(3-(dimethylamino)pyrrolidin-1-yl)-N-(2-methylimidazo[1,2-a]pyridin-6-yl)thieno[2,3-b]pyridine-2-carboxamide] showed an IC50 of 100 to 1000 nM.
`Cc1cn2cc(NC(=O)c3cc4ccc(N5CC[C@H]6CN(C)CC[C@H]65)nc4s3)ccc2n1` (stereo in doubt) [Compound 28, N-(2-methylimidazo[1,2-a]pyridin-6-yl)-6-((3aS,7aR)-5-methyloctahydro-1H-pyrrolo[3,2-c]pyridin-1-yl)thieno[2,3-b]pyridine-2-carboxamide] gave an IC50 of 1000 to 9000 nM.
In the case of `Cc1cn2cc(NC(=O)c3cc4ccc(N5CCC6CCN(C)C6C5)nc4s3)ccc2n1` (stereo in doubt) [Compound 30, N-(2-methylimidazo[1,2-a]pyridin-6-yl)-6-((3aR,7aR)-1-methyloctahydro-6H-pyrrolo[2,3-c]pyridin-6-yl)thieno[2,3-b]pyridine-2-carboxamide], the IC50 is reported as 100 to 1000 nM.
Work on `Cc1cn2cc(NC(=O)c3cc4ccc(N5C[C@H]6C[C@@H]5CN6C(C)C)nc4s3)ccc2n1` (stereo in doubt) [Compound 34, 6-((1R,4R)-5-isopropyl-2,5-diazabicyclo[2.2.1]heptan-2-yl)-N-(2-methylimidazo[1,2-a]pyridin-6-yl)thieno[2,3-b]pyridine-2-carboxamide] yielded an IC50 of under 100 nM.
In the case of `Cc1cn2cc(NC(=O)c3cc4ccc(N5CC6CCN(C)C6C5)nc4s3)ccc2n1` (stereo in doubt) [Compound 43, 6-((3aR,6aR)-1-methylhexahydropyrrolo[3,4-b]pyrrol-5(1H)-yl)-N-(2-methylimidazo[1,2-a]pyridin-6-yl)thieno[2,3-b]pyridine-2-carboxamide], the IC50 is reported as 100 to 1000 nM.
Work on `CCN[C@H]1CCN(c2ccc3cc(C(=O)Nc4cc(F)c5nc(C)cn5c4)sc3n2)C1` (stereo in doubt) [Compound 67, 6-[(3S)-3-(ethylamino)pyrrolidin-1-yl]-N-(8-fluoro-2-methyl-imidazo[1,2-a]pyridin-6-yl)thieno[2,3-b]pyridine-2-carboxamide] yielded an IC50 of under 100 nM.
With `CCN[C@@H]1CCN(c2ccc3cc(C(=O)Nc4cc(F)c5nc(C)cn5c4)sc3n2)C1` (stereo in doubt) [Compound 68, 6-[(3R)-3-(ethylamino)pyrrolidin-1-yl]-N-(8-fluoro-2-methyl-imidazo[1,2-a]pyridin-6-yl)thieno[2,3-b]pyridine-2-carboxamide] the IC50 was under 100 nM.
With `Cc1cn2cc(NC(=O)c3nc4ccc(N5CC[C@@H](N6CCC6)C5)nc4s3)cc(F)c2n1` (stereo in doubt) [Compound 92, (rel-(R)-5-(3-(azetidin-1-yl)pyrrolidin-1-yl)-N-(8-fluoro-2-methylimidazo[1,2-a]pyridin-6-yl)thiazolo[5,4-b]pyridine-2-carboxamide] the IC50 was under 100 nM.
